Row | SMILES | melting point
1 | CN1CCN(c2ccccc2C=C2SC(=O)N(c3ccc(C(F)(F)F)cc3)C2=O)CC1.Cl.O.O (hydrate or solvate) | 159 to 177 °C
2 | CN1CCN(c2ccccc2C=C2SCCN(Cc3ccccc3)C2=O)CC1 [Example 4, 4-Benzyl-2-[2-(4-methylpiperazin-1-yl)-benzylidene]-thiomorpholin-3-one] | 106 to 108 °C
3 | CN1CCN(c2ccccc2C=C2SCCN(c3ccc(C(F)(F)F)cc3)C2=O)CC1.Cl.O.O.O (hydrate or solvate) | 128 to 134 °C
4 | CN1CCN(c2ccccc2C=C2SCCN(Cc3ccc(Cl)c(Cl)c3)C2=O)CC1.Cl.O.O (hydrate or solvate) | 90 to 115 °C
5 | CN1CCN(c2ccccc2C=C2NC(=O)N(c3ccc(Cl)cc3)C2=O)CC1 [Example 2, 3-(4-Chlorophenyl)-5-[2-(4-methylpiperazin-1-yl)-benzylidene]-imidazolidine-2,4-dione] | 193 to 193.5 °C

Results, then the compound that gave them:

Row | melting point | SMILES
6 | 133 to 135 °C | CN1CCN(c2ccccc2C=C2SCCNC2=O)CC1 [Example 10, 2-[2-(4-Methylpiperazin-1-yl)-benzylidene]-thiomorpholin-3-one]
7 | 146 to 147 °C | CN1CCN(c2cccc(F)c2C=C2SCCN(c3ccc(Cl)c(Cl)c3)C2=O)CC1 [Example 11, 4-(3,4-Dichlorophenyl)-2-[2-fluoro-6-(4-methylpiperazin-1-yl)-benzylidene]-thiomorpholin-3-one]
8 | 169 to 171 °C (dec.) | CN1CCN(c2ccccc2C=C2OCCN(c3ccc(Cl)c(Cl)c3)C2=O)CC1 [Example 12, 4-(3,4-Dichlorophenyl)-2-[2-(4-methylpiperazin-1-yl)-benzylidene]-morpholin-3-one]

— US6423708B1, “Aralkyl and aralkylidene heterocyclic lactams and imides” (Pfizer INC, priority 1996, dated 2002)
